Patent publication US6924285B2, “Bicyclic heterocyclic compounds, pharmaceutical compositions containing these compounds, their use and process for preparing them” (Boehringer Ingelheim Pharma GmbH & Co., priority 2002, dated 2005)

Experiments:
[1] = target: T1, human EGF-receptor kinase (Homo sapiens, UniProt P00533); assay: Inhibition of human EGF-receptor kinase (enzyme assay, ELISA read-out); type: biochemical; conditions: cytoplasmic tyrosine kinase domain as GST fusion protein, substrate pEY/bio-pEY, 30 minutes at ambient temperature
T1 construct: GST; made in house; host or cells: Sf9 insect cells (baculovirus)
T1 sequence (P00533 688-1210): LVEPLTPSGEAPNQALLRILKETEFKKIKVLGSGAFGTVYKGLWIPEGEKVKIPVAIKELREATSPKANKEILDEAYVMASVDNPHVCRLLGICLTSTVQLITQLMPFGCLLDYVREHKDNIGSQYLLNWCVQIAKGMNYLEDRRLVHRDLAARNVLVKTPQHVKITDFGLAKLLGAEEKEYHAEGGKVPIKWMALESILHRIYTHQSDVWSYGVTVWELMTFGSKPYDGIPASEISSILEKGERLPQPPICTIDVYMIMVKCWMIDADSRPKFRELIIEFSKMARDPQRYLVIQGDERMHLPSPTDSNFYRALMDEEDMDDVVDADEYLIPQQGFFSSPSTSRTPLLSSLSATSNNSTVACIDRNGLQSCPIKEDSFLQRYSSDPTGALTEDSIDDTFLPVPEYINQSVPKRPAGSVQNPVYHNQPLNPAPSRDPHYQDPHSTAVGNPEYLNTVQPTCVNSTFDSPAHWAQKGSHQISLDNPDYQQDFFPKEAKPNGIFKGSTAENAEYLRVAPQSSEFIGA
Description: The inhibition of human EGF-receptor kinase was determined using the cytoplasmic tyrosine kinase domain (methionine 664 to alanine 1186 based on the sequence published in Nature 309 (1984), 418). For this the protein was expressed in Sf9 insect cells as GST fusion protein using the Baculovirus expression system.
The enzyme activity was measured in the presence or absence of the test compounds in serial dilutions. The polymer pEY (4:1) obtained from SIGMA was used as the substrate. Biotinylated pEY (bio-pEY) was added as the tracer substrate. 100 μl of reaction solution contained 10 μl of the inhibitor in 50% DMSO, 20 μl of the substrate solution (200 mM HEPES pH 7.4, 50 mM magnesium acetate, 2.5 mg/ml poly(EY), 5 μg/ml bio-pEY) and 20 μl of enzyme preparation. The enzyme reaction was started by the addition of 50 μl of a 100 μM ATP solution in 10 mM of magnesium chloride. The dilution of the enzyme preparation was adjusted so that the incorporation of phosphate in the bio-pEY was linear in terms of time and quantity of enzyme. The enzyme preparation was diluted in 20 mM HEPES pH 7.4, 1 mM EDTA, 130 mM common salt, 0.05% Triton X-100, 1 mM DTT and 10% glycerol.
The enzyme assays were carried out at ambient temperature over a period of 30 minutes and ended by the addition of 50 μl of a stopping solution (250 mM EDTA in 20 mM HEPES pH 7.4). 100 μl were placed on a streptavidine-coated microtitre plate and incubated for 60 minutes at ambient temperature. Then the plate was washed with 200 μl of a wash solution (50 mM Tris, 0.05% Tween 20). After the addition of 100 μl of an HRPO-labelled anti-PY antibody (PY20H Anti-PTyr:HRP made by Transduction Laboratories, 250 ng/ml) the preparation was incubated for 60 minutes. Then the microtitre plate was washed three times with 200 μl of wash solution. The samples were then combined with 100 μl of a TMB-peroxidase solution (A:B=1:1, Kirkegaard Perry Laboratories). After 10 minutes the reaction was stopped. The extinction was measured at OD450 nm with an ELISA reader. All the results were measured three times.
The data were adapted by iterative calculation using an analytical pogramme for sigmoidal curves (Graph Pad Prism Version 3.0) with a variable Hill pitch. […] The active substance concentration which inhibits the activity of EGF receptor kinase by 50% (IC50) was derived from the curves.

Q: Which IC50 [1] does the source give for `COc1cc2ncnc(Nc3ccc(F)c(Cl)c3)c2cc1O[C@H]1CC[C@@H](NS(C)(=O)=O)CC1` [Example 3, 4-[(3-chloro-4-fluoro-phenyl)amino]-6-(cis-4-methanesulphonylamino-cyclohexan-1-yloxy)-7-methoxy-quinazoline] here?
A: 0.9 nM

Q: What about the melting point of the same molecule?
A: 234 °C
